Laboratory results taken from PubChem BioAssay AID2060605 (Molecular Pharmacology Branch, DTP, NCI, 2025).

Test system: 947758-054-R-J2-PDC spheroid growth, percent test/control
Experiment: Anticancer human tumor 947758-054-R-J2-PDC patient-derived colon adenocarcinoma cell line growth inhibition [CLK]
Conditions: spheroids with HUVEC and MSC; for IC50: curve of first compound; for viability, T/C: stronger effect = lower value
Procedure, shortened: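 Patient-derived tumor cells grown as complex spheroids with HUVEC endothelial cells and mesenchymal stem cells, treated with drug combinations. Concentrations descend in half-log steps from near clinical Cmax, or from 10 microM if Cmax unknown.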
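Further: spheroids exposed to compounds for one week before readout.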
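Wherever viability, T/C is given: 100% = DMSO vehicle control wells.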

CC(C)CC(NC(=O)C(Cc1ccccc1)NC(=O)c1cnccn1)B(O)O (centres undefined) + CNC(=O)c1ccc(Nc2nc(OC3CCCC3)c3c(-c4ccc5nc(C)oc5c4)c[nH]c3n2)c(OC)c1
IC50 (second compound 0.0316 µM): 0.00185 µM | IC50 (second compound 0.1 µM): 0.00166 µM | IC50 (second compound 0.316 µM): 0.00172 µM | IC50 (second compound 1 µM): 0.00142 µM | IC50 (second compound 3.16 µM): < 0.000949 µM | IC50 (second compound 10 µM): < 0.000949 µM | viability, T/C (second compound 0.0316 µM, first compound 0.000949 µM): 117% | viability, T/C (second compound 0.0316 µM, first compound 0.003 µM): 1.15% | viability, T/C (second compound 0.0316 µM, first compound 0.00949 µM): 0.26% | viability, T/C (second compound 0.0316 µM, first compound 0.03 µM): 0.29% | viability, T/C (second compound 0.0316 µM, first compound 0.0949 µM): 0.3% | viability, T/C (second compound 0.0316 µM, first compound 0.3 µM): 0.28% | viability, T/C (second compound 0.1 µM, first compound 0.000949 µM): 89% | viability, T/C (second compound 0.1 µM, first compound 0.003 µM): 8.66% | viability, T/C (second compound 0.1 µM, first compound 0.00949 µM): 0.26% | viability, T/C (second compound 0.1 µM, first compound 0.03 µM): 0.27% | viability, T/C (second compound 0.1 µM, first compound 0.0949 µM): 0.25% | viability, T/C (second compound 0.1 µM, first compound 0.3 µM): 1.66% | viability, T/C (second compound 0.316 µM, first compound 0.000949 µM): 102% | viability, T/C (second compound 0.316 µM, first compound 0.003 µM): 1.44% | viability, T/C (second compound 0.316 µM, first compound 0.00949 µM): 0.22% | viability, T/C (second compound 0.316 µM, first compound 0.03 µM): 0.22% | viability, T/C (second compound 0.316 µM, first compound 0.0949 µM): 0.25% | viability, T/C (second compound 0.316 µM, first compound 0.3 µM): 0.23% | viability, T/C (second compound 1 µM, first compound 0.000949 µM): 75.7% | viability, T/C (second compound 1 µM, first compound 0.003 µM): 2.99% | viability, T/C (second compound 1 µM, first compound 0.00949 µM): 0.32% | viability, T/C (second compound 1 µM, first compound 0.03 µM): 0.21% | viability, T/C (second compound 1 µM, first compound 0.0949 µM): 0.26% | viability, T/C (second compound 1 µM, first compound 0.3 µM): 0.46% | viability, T/C (second compound 3.16 µM, first compound 0.000949 µM): 45.1% | viability, T/C (second compound 3.16 µM, first compound 0.003 µM): 0.43% | viability, T/C (second compound 3.16 µM, first compound 0.00949 µM): 0.21% | viability, T/C (second compound 3.16 µM, first compound 0.03 µM): 0.19% | viability, T/C (second compound 3.16 µM, first compound 0.0949 µM): 0.21% | viability, T/C (second compound 3.16 µM, first compound 0.3 µM): 0.24% | viability, T/C (second compound 10 µM, first compound 0.000949 µM): 38.8% | viability, T/C (second compound 10 µM, first compound 0.003 µM): 0.32% | viability, T/C (second compound 10 µM, first compound 0.00949 µM): 0.21% | viability, T/C (second compound 10 µM, first compound 0.03 µM): 0.2% | viability, T/C (second compound 10 µM, first compound 0.0949 µM): 0.23% | viability, T/C (second compound 10 µM, first compound 0.3 µM): 0.35%

CC1COCCN1c1cc(C2(S(C)(=N)=O)CC2)nc(-c2ccnc3[nH]ccc23)n1 (centres undefined) + CNC(=O)c1ccc(Nc2nc(OC3CCCC3)c3c(-c4ccc5nc(C)oc5c4)c[nH]c3n2)c(OC)c1
IC50 (second compound 0.0316 µM): 3.05 µM | IC50 (second compound 0.1 µM): 2.22 µM | IC50 (second compound 0.316 µM): 1.82 µM | IC50 (second compound 1 µM): 0.308 µM | IC50 (second compound 3.16 µM): 0.196 µM | IC50 (second compound 10 µM): < 0.0316 µM | viability, T/C (second compound 0.0316 µM, first compound 0.0316 µM): 95.8% | viability, T/C (second compound 0.0316 µM, first compound 0.1 µM): 103% | viability, T/C (second compound 0.0316 µM, first compound 0.316 µM): 114% | viability, T/C (second compound 0.0316 µM, first compound 1 µM): 87% | viability, T/C (second compound 0.0316 µM, first compound 3.16 µM): 49.7% | viability, T/C (second compound 0.0316 µM, first compound 10 µM): 22.2% | viability, T/C (second compound 0.1 µM, first compound 0.0316 µM): 110% | viability, T/C (second compound 0.1 µM, first compound 0.1 µM): 105% | viability, T/C (second compound 0.1 µM, first compound 0.316 µM): 91.6% | viability, T/C (second compound 0.1 µM, first compound 1 µM): 88.8% | viability, T/C (second compound 0.1 µM, first compound 3.16 µM): 32.8% | viability, T/C (second compound 0.1 µM, first compound 10 µM): 18.8% | viability, T/C (second compound 0.316 µM, first compound 0.0316 µM): 90.5% | viability, T/C (second compound 0.316 µM, first compound 0.1 µM): 93% | viability, T/C (second compound 0.316 µM, first compound 0.316 µM): 71.8% | viability, T/C (second compound 0.316 µM, first compound 1 µM): 68% | viability, T/C (second compound 0.316 µM, first compound 3.16 µM): 36% | viability, T/C (second compound 0.316 µM, first compound 10 µM): 13.2% | viability, T/C (second compound 1 µM, first compound 0.0316 µM): 72.4% | viability, T/C (second compound 1 µM, first compound 0.1 µM): 53.3% | viability, T/C (second compound 1 µM, first compound 0.316 µM): 48.5% | viability, T/C (second compound 1 µM, first compound 1 µM): 45.8% | viability, T/C (second compound 1 µM, first compound 3.16 µM): 22% | viability, T/C (second compound 1 µM, first compound 10 µM): 8.76% | viability, T/C (second compound 3.16 µM, first compound 0.0316 µM): 66.8% | viability, T/C (second compound 3.16 µM, first compound 0.1 µM): 43.6% | viability, T/C (second compound 3.16 µM, first compound 0.316 µM): 47.2% | viability, T/C (second compound 3.16 µM, first compound 1 µM): 45.7% | viability, T/C (second compound 3.16 µM, first compound 3.16 µM): 19.3% | viability, T/C (second compound 3.16 µM, first compound 10 µM): 8.82% | viability, T/C (second compound 10 µM, first compound 0.0316 µM): 50.7% | viability, T/C (second compound 10 µM, first compound 0.1 µM): 44.7% | viability, T/C (second compound 10 µM, first compound 0.316 µM): 40.5% | viability, T/C (second compound 10 µM, first compound 1 µM): 26.7% | viability, T/C (second compound 10 µM, first compound 3.16 µM): 15.1% | viability, T/C (second compound 10 µM, first compound 10 µM): 9.5%
